Experimental data taken from PMC3145970, “Specific CLK Inhibitors from a Novel Chemotype for Regulation of Alternative Splicing” (Chemistry & Biology, 2011).
“Also recorded” adds a separate entry of the source.

Experiments:
[1] = tested on: phosphorylated SR proteins in HMEC-1 cells; assay: SR protein phosphorylation, western blotting; format: cell-based, human
Protocol: Western blot analysis of samples from cell lysates of inhibited, stimulated, and unstimulated HMEC-1 cells were performed as previously described ([Szotowski et al., 2005]). For detection of phosphorylated SR proteins, monoclonal antibody mAb1H4 (Invitrogen GmbH, Karlsruhe, Germany) was used.

[2] = tested on: flTF and asHTF mRNA in HMEC-1 cells; assay: TF isoform mRNA expression (RT-PCR)
Protocol: For inhibition experiments, HMEC-1 endothelial cells were switched to EC basal medium (without fetal calf serum) for 1 hr. […] Analysis of the TF isoform mRNA expression was done 1 hr post stimulation with TNF-α and assessment of the phosphorylation state of SR proteins by western blotting was performed 2 min post induction of the cells. Positive controls were stimulated only with TNF-α, and negative controls were untreated.

CLK1 = target: T1, CLK1 (Homo sapiens, UniProt P49759); assay: Coupled-enzyme (PK/LDH) kinase inhibition assay; format: biochemical; conditions: 0.1 mM ATP, 25°C; average from three independent experiments
T1 construct: the kinase domains of human CLK1 (residues: 148–484 (C terminus)); hexahistidine tag (TEV-cleavable) (cleaved yes); made in house; host or cells: E. coli BL21(DE3)
T1 sequence (P49759 148-484): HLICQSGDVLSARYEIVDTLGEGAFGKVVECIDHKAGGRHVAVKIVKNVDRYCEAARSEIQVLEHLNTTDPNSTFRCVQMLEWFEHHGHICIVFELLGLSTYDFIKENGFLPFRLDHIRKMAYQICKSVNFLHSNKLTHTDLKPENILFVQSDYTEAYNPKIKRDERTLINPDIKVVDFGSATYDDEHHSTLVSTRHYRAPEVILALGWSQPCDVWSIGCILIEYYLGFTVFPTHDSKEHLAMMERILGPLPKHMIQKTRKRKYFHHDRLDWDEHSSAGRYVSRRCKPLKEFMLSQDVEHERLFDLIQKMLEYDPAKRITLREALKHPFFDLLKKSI
Protocol: The consensus peptide for CLK1 ([…]) and the DYRK1A substrate peptide ([…]-amide) were used as substrates at a concentration of 100 μM. Inhibitors, dissolved in DMSO, were added at the beginning of the preincubation period resulting in a final DMSO concentration of 2% in the assay. Kinetic analysis was performed by nonlinear regression fitting using GraphPad Prism 5 and least-squares fits to sigmoidal dose response curves with variable slope equation: Y=min+max−min/1+10^(logEC50−x)Hillslope, where max and min corresponds to maximal and minimal absorbance value.

| Structure (SMILES) | TNF-α-induced phosphorylation of SR proteins ([1]; HMEC-1, 10 μM inhibitor pretreatment, 10 ng/ml TNF-α, 2 min post stimulation) | Phosphorylation state of SR proteins, nonstimulated cells ([1]; HMEC-1, 10 μM inhibitor, basal conditions) | Dose response of SRp75 and SRp55 phosphorylation ([1]; TNF-α-stimulated HMEC-1, increasing inhibitor concentration) | TNF-α-induced mRNA expression of flTF and asHTF ([2]; HMEC-1, 10 μM inhibitor, 10 ng/ml TNF-α, 1 hr post stimulation) | Basal mRNA expression of flTF and asHTF ([2]; resting HMEC-1, 10 μM inhibitor) | IC50 (CLK1) [nM] |
| --- | --- | --- | --- | --- | --- | --- |
| CCN1/C(=C/C(C)=O)Sc2ccc(OC)cc21 [TG003] | reduction of the TNF-α-induced increase in phosphorylation of all analyzed SR proteins | only reduced the phosphorylation of SRp20; also recorded: no effect on the phosphorylation state of other SR proteins | little effect on SRp75 and SRp55 phosphorylation | only slightly reduced mRNA expression in TNF-α-induced cells | reduced the basal expression of flTF and asHTF mRNA | – |
| Nc1nc(Nc2ccc(S(N)(=O)=O)cc2)nn1C(=S)Nc1c(F)cccc1F [K00546] | – | – | – | – | – | 8.9 ± 3 |
